We go through 25 compounds from patent US8415469B2, “Compounds and methods for kinase modulation, and indications therefor” (Plexxikon Inc., priority 2005, dated 2013).

Type in all cases: biochemical
One assay has as its target T1, Abl (Homo sapiens, UniProt P00519).
T1 construct: P1121. pET-SPEC BI-PTP Abl G227-V515-X; His6 (N); made in house; host or cells: E. coli (PTP1B co-expressed)
T1 sequence (P00519 with tags, fused parts or gaps): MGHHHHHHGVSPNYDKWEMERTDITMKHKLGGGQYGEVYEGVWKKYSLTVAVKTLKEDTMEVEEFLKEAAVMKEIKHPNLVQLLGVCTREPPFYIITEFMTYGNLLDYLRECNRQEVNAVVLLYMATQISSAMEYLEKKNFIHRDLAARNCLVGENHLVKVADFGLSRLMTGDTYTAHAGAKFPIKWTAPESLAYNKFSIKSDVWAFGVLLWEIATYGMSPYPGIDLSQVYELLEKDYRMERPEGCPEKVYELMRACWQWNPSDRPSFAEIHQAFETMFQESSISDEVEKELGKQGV
Nature of the assay: AlphaScreen kinase assay, Abl. Particulars: read-out: activity toward kinase Abl, IC50. The essentials:
(§1)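 Biotinylated peptide substrate is phosphorylated by kinase; anti-phosphopeptide antibody on acceptor beads and streptavidin donor beads bring emission when substrate is phosphorylated. Inhibition lowers acceptor signal. Compounds from 20 mM DMSO stock tested as 8-point 1:3 serial dilutions.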
For orientation: Bead proximity is the source of the signal in Alpha formats.

The next assay has as its target T2, c-Raf-1 (Homo sapiens, UniProt P04049).
T2 construct: purchased Upstate Biotechnology
Nature of the assay: AlphaScreen kinase assay, c-Raf-1. The note with it: read-out: IC50, activity toward kinase c-Raf-1.

The target of the next assay is T3, Fak (Homo sapiens, UniProt Q05397).
T3 construct: P1358.pFastBacHtb FAK S411-Q686-X; His6 with pFastBacHTb leader (TEV site) (N); made in house; host or cells: Sf9 (baculovirus)
T3 sequence (Q05397 411-686): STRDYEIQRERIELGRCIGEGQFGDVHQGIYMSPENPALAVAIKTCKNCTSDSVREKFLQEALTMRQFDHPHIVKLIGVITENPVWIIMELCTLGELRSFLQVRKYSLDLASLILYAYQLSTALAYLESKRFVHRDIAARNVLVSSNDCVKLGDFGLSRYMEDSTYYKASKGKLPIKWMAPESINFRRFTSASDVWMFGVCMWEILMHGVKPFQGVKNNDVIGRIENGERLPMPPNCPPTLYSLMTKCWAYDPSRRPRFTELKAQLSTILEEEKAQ
Nature of the assay: AlphaScreen kinase assay, Fak. Particulars: read-out: IC50, activity toward kinase Fak.

The target of the next assay is T4, Flt1 (Homo sapiens, UniProt P17948).
T4 construct: P1826.pETN6 BI-PTP FLT1 M799-D1165-X WT; His6 (N); made in house; host or cells: E. coli (PTP1B co-expressed)
T4 sequence (P17948 with tags, fused parts or gaps): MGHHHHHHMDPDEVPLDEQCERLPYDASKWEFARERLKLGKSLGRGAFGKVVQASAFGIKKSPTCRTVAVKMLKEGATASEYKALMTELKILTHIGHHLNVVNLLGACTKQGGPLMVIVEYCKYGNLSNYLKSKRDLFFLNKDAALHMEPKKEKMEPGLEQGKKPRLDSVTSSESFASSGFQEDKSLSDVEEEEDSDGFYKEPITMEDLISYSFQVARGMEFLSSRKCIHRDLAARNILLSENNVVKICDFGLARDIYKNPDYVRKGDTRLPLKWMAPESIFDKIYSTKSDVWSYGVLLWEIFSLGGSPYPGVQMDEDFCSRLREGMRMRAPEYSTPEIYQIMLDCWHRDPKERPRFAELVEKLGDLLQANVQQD
As to the kind of experiment: AlphaScreen kinase assay, Flt1. Particulars: read-out: IC50, activity toward kinase Flt1.

In the next assay the target is T5, Jnk3 (Homo sapiens, UniProt P53779).
T5 construct: purchased Upstate Biotechnology
T5 sequence (P53779 whole entry): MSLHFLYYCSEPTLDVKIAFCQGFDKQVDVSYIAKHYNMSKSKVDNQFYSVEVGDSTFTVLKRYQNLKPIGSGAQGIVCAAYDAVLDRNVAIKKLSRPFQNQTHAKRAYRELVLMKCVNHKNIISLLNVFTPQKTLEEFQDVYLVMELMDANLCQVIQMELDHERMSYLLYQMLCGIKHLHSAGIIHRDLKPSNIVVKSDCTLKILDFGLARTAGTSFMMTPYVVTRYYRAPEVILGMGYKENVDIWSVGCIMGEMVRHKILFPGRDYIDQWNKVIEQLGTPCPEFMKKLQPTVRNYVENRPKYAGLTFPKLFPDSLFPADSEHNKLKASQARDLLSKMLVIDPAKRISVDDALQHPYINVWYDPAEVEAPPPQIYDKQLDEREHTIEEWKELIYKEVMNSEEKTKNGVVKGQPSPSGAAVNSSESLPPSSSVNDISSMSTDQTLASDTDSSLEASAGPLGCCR
As to the kind of experiment: AlphaScreen kinase assay, Jnk3. Particulars: read-out: IC50, activity toward kinase Jnk3.

The next assay addresses T6, Met (Homo sapiens, UniProt P08581).
T6 construct: P1818.pETN6 BI-PTP MET G1056-G1364-X WT; His6 (N); made in house; host or cells: E. coli (PTP1B co-expressed)
As to the kind of experiment: AlphaScreen kinase assay, Met. The note with it: read-out: IC50, activity toward kinase Met. The essentials:
as §1

Another assay deals with T7, Pyk2 (Homo sapiens, UniProt Q14289).
T7 construct: purchased Upstate Biotechnology
T7 sequence (Q14289 whole entry): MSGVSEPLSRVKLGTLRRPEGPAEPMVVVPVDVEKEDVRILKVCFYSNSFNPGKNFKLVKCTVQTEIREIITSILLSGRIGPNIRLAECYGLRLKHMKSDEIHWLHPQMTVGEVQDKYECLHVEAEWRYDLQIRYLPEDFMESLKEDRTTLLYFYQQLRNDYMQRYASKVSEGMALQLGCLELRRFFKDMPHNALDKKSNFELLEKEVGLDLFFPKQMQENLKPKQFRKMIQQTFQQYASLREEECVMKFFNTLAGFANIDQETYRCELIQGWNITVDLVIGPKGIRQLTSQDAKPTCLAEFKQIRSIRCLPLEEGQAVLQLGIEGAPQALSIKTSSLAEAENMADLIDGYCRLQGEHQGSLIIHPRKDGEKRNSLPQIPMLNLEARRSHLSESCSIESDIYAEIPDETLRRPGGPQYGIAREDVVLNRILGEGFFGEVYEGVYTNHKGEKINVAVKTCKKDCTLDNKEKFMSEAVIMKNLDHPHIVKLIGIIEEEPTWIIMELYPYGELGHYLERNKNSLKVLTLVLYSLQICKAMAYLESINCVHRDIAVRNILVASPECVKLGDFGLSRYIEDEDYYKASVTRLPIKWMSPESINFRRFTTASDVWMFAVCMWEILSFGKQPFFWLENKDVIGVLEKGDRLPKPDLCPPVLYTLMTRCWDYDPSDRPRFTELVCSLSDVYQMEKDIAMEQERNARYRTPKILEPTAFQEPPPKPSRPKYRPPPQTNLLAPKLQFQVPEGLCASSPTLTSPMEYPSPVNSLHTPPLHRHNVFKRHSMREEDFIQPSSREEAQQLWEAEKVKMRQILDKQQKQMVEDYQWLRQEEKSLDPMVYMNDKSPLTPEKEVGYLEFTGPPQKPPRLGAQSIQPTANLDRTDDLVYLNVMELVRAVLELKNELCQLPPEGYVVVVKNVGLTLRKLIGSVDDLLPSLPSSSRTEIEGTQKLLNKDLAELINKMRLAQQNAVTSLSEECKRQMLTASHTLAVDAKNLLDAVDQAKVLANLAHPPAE
As to the kind of experiment: AlphaScreen kinase assay, Pyk2. Particulars: read-out: IC50, activity toward kinase Pyk2.

A further assay has as its target Akt3 (Homo sapiens, UniProt Q9Y243). As to the kind of experiment: AlphaScreen kinase assay, Akt3. Particulars: read-out: IC50, activity toward kinase Akt3. In a few lines:
as §1

Another assay deals with T8, Jak3 (Homo sapiens, UniProt P52333).
T8 sequence (P52333 1-1124): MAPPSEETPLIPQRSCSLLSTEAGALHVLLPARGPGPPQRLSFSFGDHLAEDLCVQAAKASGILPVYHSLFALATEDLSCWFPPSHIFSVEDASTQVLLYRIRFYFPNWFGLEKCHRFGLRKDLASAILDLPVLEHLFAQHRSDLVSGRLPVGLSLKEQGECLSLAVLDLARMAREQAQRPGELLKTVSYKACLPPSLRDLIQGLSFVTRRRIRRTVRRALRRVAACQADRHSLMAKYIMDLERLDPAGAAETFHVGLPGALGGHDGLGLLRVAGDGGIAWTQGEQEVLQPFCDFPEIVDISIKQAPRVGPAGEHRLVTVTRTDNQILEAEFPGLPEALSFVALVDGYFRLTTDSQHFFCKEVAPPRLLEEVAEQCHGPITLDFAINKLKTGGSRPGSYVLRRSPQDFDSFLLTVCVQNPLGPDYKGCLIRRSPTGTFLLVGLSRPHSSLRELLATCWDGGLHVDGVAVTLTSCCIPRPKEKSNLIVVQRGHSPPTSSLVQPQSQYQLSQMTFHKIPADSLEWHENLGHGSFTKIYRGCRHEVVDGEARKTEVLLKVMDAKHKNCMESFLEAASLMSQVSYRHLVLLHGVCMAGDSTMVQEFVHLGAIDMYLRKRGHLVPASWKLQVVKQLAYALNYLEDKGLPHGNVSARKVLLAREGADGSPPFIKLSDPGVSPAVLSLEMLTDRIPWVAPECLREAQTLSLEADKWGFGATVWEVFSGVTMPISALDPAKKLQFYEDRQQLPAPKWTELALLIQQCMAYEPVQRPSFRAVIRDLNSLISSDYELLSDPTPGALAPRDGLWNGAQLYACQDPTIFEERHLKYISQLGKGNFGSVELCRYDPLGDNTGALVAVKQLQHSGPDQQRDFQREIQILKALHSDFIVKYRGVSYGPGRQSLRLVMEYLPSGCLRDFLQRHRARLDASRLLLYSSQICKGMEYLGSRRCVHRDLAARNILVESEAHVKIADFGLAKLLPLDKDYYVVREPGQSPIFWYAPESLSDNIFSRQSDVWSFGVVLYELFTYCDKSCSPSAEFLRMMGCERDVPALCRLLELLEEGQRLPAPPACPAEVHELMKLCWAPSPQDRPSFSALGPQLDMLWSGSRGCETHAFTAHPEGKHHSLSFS
As to the kind of experiment: AlphaScreen kinase assay, Jak3. Particulars: read-out: IC50, activity toward kinase Jak3. The essentials: as §1

Structures are written as SMILES.

T2 sequence (P04049 whole entry): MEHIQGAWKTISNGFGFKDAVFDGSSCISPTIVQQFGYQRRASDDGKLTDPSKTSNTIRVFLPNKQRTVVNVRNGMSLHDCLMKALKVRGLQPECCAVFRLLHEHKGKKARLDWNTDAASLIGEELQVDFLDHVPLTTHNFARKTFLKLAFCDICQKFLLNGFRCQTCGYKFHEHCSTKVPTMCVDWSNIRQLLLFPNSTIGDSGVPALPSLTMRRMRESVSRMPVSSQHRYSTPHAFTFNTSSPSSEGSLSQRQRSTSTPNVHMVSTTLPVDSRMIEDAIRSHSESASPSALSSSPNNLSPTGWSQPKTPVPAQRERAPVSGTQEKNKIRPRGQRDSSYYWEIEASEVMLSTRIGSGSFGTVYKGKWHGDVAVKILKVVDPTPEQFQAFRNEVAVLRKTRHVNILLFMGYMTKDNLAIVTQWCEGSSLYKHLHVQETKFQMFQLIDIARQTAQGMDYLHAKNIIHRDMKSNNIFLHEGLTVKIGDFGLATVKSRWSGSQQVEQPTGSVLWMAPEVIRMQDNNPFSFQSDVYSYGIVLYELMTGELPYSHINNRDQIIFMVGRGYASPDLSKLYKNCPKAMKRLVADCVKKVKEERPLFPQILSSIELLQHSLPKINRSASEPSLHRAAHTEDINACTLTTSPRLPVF
T6 sequence (P08581 with tags, fused parts or gaps): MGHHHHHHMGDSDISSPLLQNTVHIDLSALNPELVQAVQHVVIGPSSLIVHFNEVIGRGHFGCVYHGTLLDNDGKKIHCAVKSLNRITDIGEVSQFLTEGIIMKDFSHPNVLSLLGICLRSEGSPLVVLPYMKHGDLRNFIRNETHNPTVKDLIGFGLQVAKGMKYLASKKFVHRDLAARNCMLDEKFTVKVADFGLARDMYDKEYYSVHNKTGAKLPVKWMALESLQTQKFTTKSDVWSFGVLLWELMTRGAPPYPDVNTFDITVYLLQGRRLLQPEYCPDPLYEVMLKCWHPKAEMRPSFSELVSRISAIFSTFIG
Akt3, sequence (Q9Y243 whole entry): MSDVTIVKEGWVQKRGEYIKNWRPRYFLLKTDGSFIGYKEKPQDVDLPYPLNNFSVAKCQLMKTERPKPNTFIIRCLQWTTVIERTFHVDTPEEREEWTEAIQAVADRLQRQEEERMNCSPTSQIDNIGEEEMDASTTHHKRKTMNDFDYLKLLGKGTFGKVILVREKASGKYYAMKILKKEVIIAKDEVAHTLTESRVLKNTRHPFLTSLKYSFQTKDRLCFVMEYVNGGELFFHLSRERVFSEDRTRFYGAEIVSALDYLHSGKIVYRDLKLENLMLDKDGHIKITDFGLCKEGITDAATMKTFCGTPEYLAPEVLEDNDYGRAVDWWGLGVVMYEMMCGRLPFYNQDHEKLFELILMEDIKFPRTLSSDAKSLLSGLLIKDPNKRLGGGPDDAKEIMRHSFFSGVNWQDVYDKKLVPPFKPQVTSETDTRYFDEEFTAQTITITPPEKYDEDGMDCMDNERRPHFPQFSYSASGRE
Description for Flt1: AlphaScreen assay was used to screen additional kinases. The assay is similarly dependent on the phosphorylation of a peptide substrate. In this assay, an antibody that recognizes phosphorylated substrate is bound to an acceptor bead. The peptide substrate is attached to biotin, which binds to a donor head that contains streptavidin. Thus phosphorylated substrate is bound by antibody and streptavidin, bringing the donor and acceptor heads into close proximity when kinase is not inhibited. The donor produces singlet oxygen which results in emission from the acceptor when they are in close proximity. Conversely, when kinase is inhibited, the donor and acceptor beads are not associated and the emission from the acceptor is reduced.
AlphaScreen assays were done using compounds dissolved in DMSO to a concentration of 20 mM. The compounds were diluted accordingly to the desired final concentrations in each sample well, using 1:3 serial dilution for a total of 8 concentration points. Plates were prepared such that each kinase reaction is 20 μl in 1× kinase buffer, 5% DMSO and 10 μM ATP. After incubation of the kinase reaction for 1 hour at room temperature, 5 μl of donor beads in stop buffer (50 mM EDTA in 1× kinase buffer) was added, the sample was mixed and incubated for 20 minutes at room temperature before adding 5 μl of acceptor beads in stop buffer. The samples were incubated for 60 minutes at room temperature and the signal per well was read on AlphaQuest reader.

A word on the IC50: it is the concentration that inhibits the measured activity by half. `CC(=O)Nc1cccc(-c2cnc3[nH]cc(C(=O)c4cc(O)ccc4F)c3c2)c1` [Compound P-0001]: the IC50 at Abl, at c-Raf-1, on Fak, at Flt1, at Jnk3 and on Met was not above 10 µM in each case. The IC50 at Pyk2 and at Akt3 was not above 10 µM each time.
For the compound `Nc1cccc(-c2cnc3[nH]cc(C(=O)c4cccc(O)c4)c3c2)c1` [Compound P-0003], the IC50 on Abl, at Fak, at Flt1, at Jnk3, on Akt3 and on Jak3 was not above 10 µM throughout.
In the case of `Oc1ccc(F)c(C(O)c2c[nH]c3ncc(-c4cccnc4)cc23)c1F` (stereo not drawn) [Compound P-0009, 2,4-difluoro-3-[hydroxy-(5-pyridin-3-yl-1H-pyrrolo[2,3-b]pyridin-3-yl)-methyl]-phenol], the IC50 at c-Raf-1, at Fak, at Flt1, on Jnk3, at Met and on Jak3 was not above 10 µM in each case.
Consider `NC(=O)c1ccc(-c2ccnc3[nH]cc(C(=O)c4cc(F)ccc4F)c23)cc1` [Compound P-0013], for which the IC50 on Flt1 and on Jak3 was not above 10 µM each time.
For the compound `NC(=O)c1ccc(-c2ccnc3[nH]cc(C(=O)c4ccccc4F)c23)cc1` [Compound P-0014], the IC50 at Jak3 was not above 10 µM.
In the case of `O=C(c1cccc(O)c1)c1c[nH]c2ncc(Br)cc12` [Compound P-0019], the IC50 on Abl, at Flt1, at Akt3 and at Jak3 was not above 10 µM in each case.
As to `CS(=O)(=O)c1cccc(-c2cnc3[nH]cc(C(O)c4c(F)ccc(F)c4F)c3c2)c1` (stereo not drawn) [Compound P-0020], the IC50 on Flt1, on Met and on Jak3 was not above 10 µM throughout.
In the case of `Nc1cccc(-c2ccnc3[nH]cc(C(=O)c4ccccc4F)c23)c1` [Compound P-0022], the IC50 on Jak3 was not above 10 µM.
For `O=C(c1ccc(O)cc1)c1c[nH]c2ncc(-c3cccs3)cc12` [Compound P-0024, (4-Hydroxy-phenyl)-(5-thiophen-2-yl-1H-pyrrolo[2,3-b]pyridin-3-yl)-methanone], the IC50 on c-Raf-1, on Fak, at Flt1, at Jnk3, on Pyk2 and at Akt3 was not above 10 µM in each case. Also, the concentration for half-maximal inhibition (IC50) at Jak3 is not above 10 µM.
Consider `O=C(c1cccc(O)c1)c1c[nH]c2nccc(-c3cc(F)cc(F)c3)c12` [Compound P-0039], for which the IC50 at Flt1 and on Jak3 was not above 10 µM each time.
For `Cn1cc(C(F)(F)F)c(-c2ccc(S(=O)(=O)NCc3c[nH]c4ncccc34)s2)n1` [Compound P-0041], the IC50 on Abl, on Flt1, at Jnk3, on Met, at Pyk2 and at Akt3 was not above 10 µM each time.
In the case of `Cc1ccccc1C(=O)c1c[nH]c2nccc(-c3cccc(N)c3)c12` [Compound P-0044], the IC50 on Jak3 is not above 10 µM.
Same read-out and setting: as for `Nc1cccc(-c2ccnc3[nH]cc(C(=O)c4cc(F)ccc4F)c23)c1` [Compound P-0046], the figure is not above 10 µM; as for `NC(=O)c1cccc(-c2ccnc3[nH]cc(C(=O)c4cc(F)ccc4F)c23)c1` [Compound P-0049], not above 10 µM.
Turning to `O=C(c1ccccc1F)c1c[nH]c2nccc(-c3ccsc3)c12` [Compound P-0051], the IC50 at Jak3 is not above 10 µM.
For the compound `CS(=O)(=O)Nc1cccc(-c2ccnc3[nH]cc(C(=O)c4cc(F)ccc4F)c23)c1` [Compound P-0060], the IC50 at Akt3 and at Jak3 was not above 10 µM in each case.
On to `O=C(c1cc(F)ccc1F)c1c[nH]c2nccc(-c3cccnc3)c12` [Compound P-0063], for which the IC50 on Jak3 is not above 10 µM.
Same read-out and setting: as for `CC(=O)Nc1cccc(-c2ccnc3[nH]cc(C(=O)c4ccccc4F)c23)c1` [Compound P-0070], the figure is not above 10 µM.
Consider `OC(c1c(F)ccc(F)c1F)c1c[nH]c2ncc(-c3cccnc3)cc12` (stereo not drawn) [Compound P-0101], for which the IC50 on Flt1, at Met and at Jak3 was not above 10 µM throughout.
In the case of `Fc1cc(F)cc(-c2ccnc3[nH]cc(Sc4ccccn4)c23)c1` [Compound P-0106], the IC50 on Jak3 is not above 10 µM.
Turning to `Cc1ccccc1C(=O)c1c[nH]c2nccc(-c3cccc(NS(C)(=O)=O)c3)c12` [Compound P-0109], at Jak3, the IC50 is not above 10 µM.
Take `Oc1ccc(F)c(Cc2c[nH]c3ncc(Br)cc23)c1F` [Compound P-0122, 3-(5-Bromo-1H-pyrrolo[2,3-b]pyridin-3-ylmethyl)-2,4-difluoro-phenol]: the IC50 at c-Raf-1, on Jnk3, at Pyk2, at Akt3 and at Jak3 was not above 10 µM throughout.
For `Cc1ccc(F)cc1C(=O)c1c[nH]c2nccc(-c3cccc(NS(C)(=O)=O)c3)c12` [Compound P-0124], the IC50 at Jak3 was not above 10 µM.
Same read-out and setting: the value for `CS(=O)(=O)c1cccc(-c2ccnc3[nH]cc(C(=O)c4cc(F)ccc4F)c23)c1` [Compound P-0171] was not above 10 µM.
As to `O=C(c1cccc(O)c1F)c1c[nH]c2ncc(-c3cccs3)cc12` [Compound P-0521, (2-fluoro-3-hydroxy-phenyl)-(5-thiophen-2-yl-1H-pyrrolo[2,3-b]pyridin-3-yl)-methanone], the IC50 at Abl, on c-Raf-1, on Flt1, at Jnk3, at Pyk2 and at Jak3 was not above 10 µM each time.
